Drawing on patent US20260191782A1, “URIDINE TRIACETATE AMORPHOUS FORMULATION AND USES THEREOF” (PHARMA CINQ, LLC, priority 2022, published 2026), this text covers seizure frequency and solubility in water for one molecule.

Series [1] concerns primary mitochondrial disease. As to the kind of experiment: Treatment of primary mitochondrial disease (patient example). The series is classed as in vivo, human. The note with it: PMD patient, dose increased to 100 mg/kg/dose twice daily. The text has this: A patient is diagnosed with primary mitochondrial disease by identification of pathogenic mutations known to impair mitochondrial oxidative phosphorylation (by whole exome sequencing and comparison with a database of known pathogenic genetic variants) combined with symptoms consistent with PMD, in this case including recurrent epileptic seizures, developmental delays, proximal renal tubular acidosis requiring bicarbonate supplementation, and exercise intolerance with early onset of fatigue during exertion. […] Within about one week, seizure frequency declines by more than 50%, and daily bicarbonate requirements to compensate for excessive urinary excretion due to proximal tubular acidosis is reduced from 200 milliEquivalents per day to less than 25. With the therapeutic goal of maintaining plasma bicarbonate above 20 mEq/liter. After several additional weeks, endurance during exercise improves, as measured by timed walking distance and standard clinical measures of subjective fatigue.

For series [2] the following is noted: cited from earlier work.

In the case of `CC(=O)OC[C@H]1O[C@@H](n2ccc(=O)[nH]c2=O)[C@H](OC(C)=O)[C@@H]1OC(C)=O` [Uridine triacetate, 2′,3′,5′-Tri-O-acetyluridine], the seizure frequency entry in series [1] is listed as “decreases further”. Moreover, the solubility in water result in series [2] is given as “approximately 10 milligrams per milliliter”.
